Experimental data taken from ChEMBL document CHEMBL5385934, “Identification of two novel chemical classes of Autotaxin (ATX) inhibitors using Enalos Asclepios KNIME nodes” (Bioorg Med Chem Lett, 2024).
Active and inactive are the calls of the source. The rule behind the calls is not given here.

Columns and labels:
Autotaxin [1] = molecular target: T1, Autotaxin (Homo sapiens, UniProt Q13822); experiment: Inhibition of human ATX assessed as decrease in LPC hydrolysis upto 2.5 uM by Amplex Red assay
Autotaxin [2] = molecular target: T1, Autotaxin; experiment: Inhibition of human ATX by Amplex Red assay
Autotaxin [3] = molecular target: T1, Autotaxin; experiment: Inhibition of human ATX assessed as decrease in LPC hydrolysis by Amplex Red assay
Autotaxin [4] = molecular target: T1, Autotaxin; experiment: Inhibition of human ATX at 100 uM by Amplex Red assay relative to control

Compound | inhibition (Autotaxin [1]) | IC50 (Autotaxin [2]) [µM] | inhibition (Autotaxin [3]) | inhibition (Autotaxin [4]) [%]
Cc1nc(Nc2cccc(C3CCCN3C(=O)c3n[nH]c4c3CCCC4)n2)sc1C (stereo not drawn) | Active | 2.53 | Active | 85
O=C(CSc1nnc(-c2ccco2)o1)N1c2ccccc2Sc2ccc(Cl)cc21 | Active | 9.41 | Active | 87
